Measured values as given in US12427151B2, “Compositions and method of treating cancer” (The Regents of the University of California, priority 2017, dated 2025).
≈ marks a conversion by molar mass, not a printed value.

Legend:
[1] = system: GAS; test: Antimicrobial activity against GAS in the presence of adenine; type: cell-based, group A Streptococcus; settings: 20 hrs, CFU
Procedure: (a) Time course killing of GAS in THB containing 6-HAP (25 μg/mL), mitomycin C (5 μg/mL), or LL-37 (10 μM). At each indicated time point, live GAS in the media was measured by counting CFU on an agar plate. The data represent mean±SE of four individual experiments. (b) Membrane permeability of GAS incubated in THB containing 6-HAP (25 μg/mL), mitomycin C (5 μg/mL) and LL-37 (10 μM) for 1 hr. The bacteria with compromised plasma membranes (Red) can be distinguished from those with intact membranes (Green). (c) BrdU incorporation into nascent DNA of GAS after incubation with 6-HAP (25 μg/mL) or mitomycin C (5 μg/mL) in THB containing BrdU (10 μM) for 30 or 60 min. (d) BrdU incorporation into nascent DNA of S. epidermidis ATCC12228 after incubation with 6-HAP (25 μg/mL) or mitomycin C (5 μg/mL) in THB containing BrdU (10 μM) for 60 min. The data represent mean±SE of five individual experiments (*P<0.05 and **P<0.01 by Student's t-test vs vehicle control). […] Extension reaction was analyzed on a 20% acrylamide gel by electrophoresis (f). […] GAS survival was measured by counting CFU. […]
We next assessed the effect of 6-HAP on DNA synthesis. […] To directly examine the action of 6-HAP on DNA extension in a cell free system, 25-bp templates and matching 18-bp fluorescence primers were designed to measure DNA extension in vitro by Klenow (exo) DNA polymerase (FIG. 4e).

[2] = system: Pam212 squamous cell carcinoma; test: Cell proliferation assay (BrdU incorporation); type: cell-based, mouse; settings: Pam212, 4-hr incubation
Procedure: (a-b) Selective antiproliferative activity of 6-HAP against Pam212 squamous cell carcinoma, but not against normal keratinocytes. BrdU incorporation into Pam212 cells (b) or NHEKs (b) after 4-hr or 24-hr incubation, respectively, in suitable media containing indicated concentrations of 6-HAP or mitomycin C (10 μg/mL) (a). (c) Expression of mARC1 and mARC2 in NHEKs, squamous cell carcinoma (Pam212), melanoma (B16F10) and lymphoma cell lines (L5178). To compare relative expression level in each cells, data was shown as relative to GAPDH expression. (d) Expression of mARC1 and mARC2 in NHEKs treated with control siRNA, mARCI siRNA and mARC2 siRNA. (e) Effect of gene silencing with mARC1 and mARC2 siRNA on sensitivity to 6-HAP in NHEKs. NHEKs treated with each siRNA were incubated for 48 hrs and then incubated with 10 μg/mL of 6-HAP for 24 hrs.
Cell culture and cell proliferation assay. B16F10 mouse melanoma, Pam212, L5178 and YAC-1 mouse […] cell lines were obtained from American Type Culture Collection. […] After 4-hr (tumor cell lines) or 24-hr (NHEK) incubation with 6-HAP, proliferative activity of cells was colorimetrically determined by monitoring BrdU incorporation with Cell Proliferation kit according to the manual (Roche).

[3] = system: GBS DK23; test: MBC determination; type: cell-based, group B Streptococcus; settings: Streptococcus, 3-log reduction, 24 hour, 37° C., half strength MHB in PBS
Procedure: (§1) To determine MBC, bacteria were cultured in TSB (Staphylococcus), THB (Streptococcus) or Nutrient broth (P. aeruginosa and E. coli) by reaching exponential phase (OD600=0.5-0.8). […] After incubation, the number of viable bacteria was measured by counting CFU after spreading 10-fold serial dilutions of bacteria on suitable agar plates. MBC was determined as a 3-log reduction (99.9%) of viable bacteria after 24 hour incubation.
(§2) Antimicrobial activity of 6-HAP in vitro. To examine the specificity of 6-HAP for various bacteria, minimal bactericidal concentrations (MBCs) were determined according to dose-dependent killing curves at 24 hrs of incubation in vitro (Table 1). 6-HAP killed or suppressed growth of several major skin pathogens including GAS (NZ131), group B Streptococcus (GBS) (DK23), methicillin-sensitive S. aureus (ATCC35556), methicillin-resistant S. aureus (MRSA) strains (USA300 and Sanger252), Pseudomonas aeruginosa (P. aeruginosa) (ATCC14213) in vitro. […] S. epidermidis (ATCC12228) was also resistant to 6-HAP.

[4] = system: GAS NZ131; test: MBC determination; type: cell-based, group A Streptococcus; settings: Streptococcus, 3-log reduction of viable bacteria after 24 hour incubation at 37° C. in half strength MHB in PBS
Procedure: as §1, §2

ONc1ncnc2nc[nH]c12 [6-HAP, 6-N-hydroxyaminopurine]
antimicrobial activity against GAS on addition of excessive adenine [1]: partially decreased | BrdU incorporation [2]: inhibited | MBC [3]: 0.781 µg/mL (≈ 5.17 µM) | MBC [4]: 0.156 µg/mL (≈ 1.03 µM)
